According to PubChem BioAssay AID1918948 (Molecular Pharmacology Branch, DTP, NCI, 2023):

System: K-562 leukemia growth, % test/control
Assay: Anticancer human tumor K-562 cell line growth inhibition;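 also: spheroids exposed to compounds for 7 days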;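 as to viability, T/C: 100% = DMSO vehicle wells and lower values mean fewer viable cells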
Details: spheroids with HUVEC and MSC; for IC50: curve of first compound; for viability, T/C: stronger effect = lower value
Text: Multicellular complex tumor spheroid response to LSD1 Inhibitor Iadademstat in combination with a variety of drugs and investigational agents in selected tumor cell lines
The current study was undertaken to assess response to LSD1 inhibitors in combination with standard-of-care drugs and investigational agents in solid tumor complex spheroid models as well as in the K-562 leukemia. Complex spheroids include a stromal component modeled by human endothelial cells (HUVEC) and fibroblasts modeled by human mesenchymal stem cells (MSCs). The concentration ranges selected for each drug and investigational agent were based upon clinically achievable concentrations if the clinical Cmax of the agent was known.
Compounds. The drugs and investigational agents used in this study are listed on Table 1. All of the agents used, including staurosporine (NSC755774) and gemcitabine (NSC613327), were obtained from the Developmental Therapeutics Program, NCI. FDA-approved anticancer drugs are available from the NCI at http://dtp.nci.nih.gov/branches/dscb/oncology_drugset_explanation.html. Drugs and investigational agents were >95% pure by proton nuclear magnetic resonance (NMR) and liquid chromatography/mass spectrometry (LC/MS). Stock solutions were prepared at 400x in DMSO, stored at -70 degrees C, and diluted in fresh medium prior to their use. The final concentration of DMSO in cell culture wells never exceeded 0.25% (v/v). The FDA-approved anticancer drug set is available from the Developmental Therapeutics Program at https://dtp.cancer.gov/organization/dscb/obtaining/available_plates.htm. All drugs and investigational agents were tested over a range starting from a high concentration at or near the clinical Cmax and decreasing in half-log increments. If the clinical Cmax for an agent had not been determined, the highest concentration tested was 10 microM.
Cell Lines. The patient-derived cancer cell (PDC) lines: 292921-168-R-J2-PDC, K24384-001-R-PDC, and 521955-158-R2-J5-PDC pancreatic carcinomas, 556581-035-R-J1 ovarian carcinoma, 324938-238-R-J1-PDC, 855422-203-R-J1-PDC and 883617-216-R-J1-PDC urothelial bladder carcinomas, 743489-274-T-PDC renal cell carcinoma, 138582-R-J1 Merkel cell tumor, K60290-347-R-J1 and K57222-313-R-J1-PDC glioblastomas, 653999-131-R-J2-PDC, LG0703-F948-PDC, and 349418-098-R-PDC non-small cell lung carcinomas, 885512-296-R-J2-PDC, 171881-019-R-J1-PDC breast carcinomas and 186277-243-T-J2-PDC and 233499-124-R-J2-PDC colon carcinomas were obtained from the NCI Patient-Derived Models Repository (PDMR, https://pdmr.cancer.gov). The established cell lines NCI/ADR-RES (RRID:CVCL_14520 and OVCAR-5 (RRID:CVCL_1628) ovarian carcinomas, 786-O (RRID:CVCL_1051) and A498 (RRID:CVCL_A498) renal cell carcinoma, NCI-H211 (ATCC, cat. CRL-5824; RRID:CVCL_1529), NCI-H196 (ATCC, cat. CRL-5823, RRID:CVCL_1509), SW 1271 (ATCC, cat. CRL-2177, RRID:CVCL_1716) and NCI-H1876 (ATCC, cat. CRL-5902, RRID:CVCL_1503) small cell lung carcinomas, MDA-MB-231 (RRID:CVCL_0062) and MDA-MB-468 (RRID:CVCL_0419)breast carcinomas (10-12). Pooled donor human umbilical vein endothelial cells (HUVEC, Lonza, cat. CC-2519) and human mesenchymal stem cells (hMSC, Lonza, cat. PT-2501) were purchased from Lonza (Walkersville, MD).
Cell Culture. All cells were maintained in an incubator at 37 degrees C and 5% CO2 with 95% humidity. The PDC lines were cultured according to standard operating procedures established by the NCI PDMR (https://pdmr.cancer.gov). Briefly all PDCs were thawed and cultured in Matrigel-coated flasks prepared with a working solution of 1X Ham's F-12 nutrient mix, without supplementation (Invitrogen, Waltham, MA, cat. 11765054), 100 U/mL penicillin-streptomycin (Invitrogen, cat. 15140122), and 2.5% Matrigel (Corning Inc., Corning, NY, cat. 354248) for the first three passages. […]

Compound CC[C@@]1(O)C(=O)OCc2c1cc1n(c2=O)Cc2cc3c(CN(C)C)c(O)ccc3nc2-1 + NC1CC1c1ccc(-c2cccc(O)c2)cc1 has an IC50 (second compound 0.1 µM) of 7.67 nM, an IC50 (second compound 0.316 µM) of 5.74 nM and an IC50 (second compound 1 µM) of 5.4 nM. It also gave an IC50 (second compound 3.16 µM) of 4.98 nM, an IC50 (second compound 10 µM) of 4.19 nM and a viability, T/C (second compound 0.1 µM, first compound 0.000316 µM) of 113%. It also gave a viability, T/C (second compound 0.1 µM, first compound 0.001 µM) of 107%, a viability, T/C (second compound 0.1 µM, first compound 0.00316 µM) of 61.6% and a viability, T/C (second compound 0.1 µM, first compound 0.01 µM) of 50.7%. The viability, T/C (second compound 0.1 µM, first compound 0.0316 µM) was 18.9%, the viability, T/C (second compound 0.1 µM, first compound 0.1 µM) was 8.32% and the viability, T/C (second compound 0.316 µM, first compound 0.000316 µM) was 109%. The viability, T/C (second compound 0.316 µM, first compound 0.001 µM) was 106%, the viability, T/C (second compound 0.316 µM, first compound 0.00316 µM) was 60.2% and the viability, T/C (second compound 0.316 µM, first compound 0.01 µM) was 38.5%. For the same compound, the viability, T/C (second compound 0.316 µM, first compound 0.0316 µM) was 13.9%, the viability, T/C (second compound 0.316 µM, first compound 0.1 µM) was 5.85% and the viability, T/C (second compound 1 µM, first compound 0.000316 µM) was 107%. It also gave a viability, T/C (second compound 1 µM, first compound 0.001 µM) of 100%, a viability, T/C (second compound 1 µM, first compound 0.00316 µM) of 59.9% and a viability, T/C (second compound 1 µM, first compound 0.01 µM) of 36.5%. It also gave a viability, T/C (second compound 1 µM, first compound 0.0316 µM) of 12%, a viability, T/C (second compound 1 µM, first compound 0.1 µM) of 6.28% and a viability, T/C (second compound 3.16 µM, first compound 0.000316 µM) of 104%. The viability, T/C (second compound 3.16 µM, first compound 0.001 µM) was 99.7%, the viability, T/C (second compound 3.16 µM, first compound 0.00316 µM) was 56.5% and the viability, T/C (second compound 3.16 µM, first compound 0.01 µM) was 35.1%. It also gave a viability, T/C (second compound 3.16 µM, first compound 0.0316 µM) of 11%, a viability, T/C (second compound 3.16 µM, first compound 0.1 µM) of 6.02% and a viability, T/C (second compound 10 µM, first compound 0.000316 µM) of 99.4%. The viability, T/C (second compound 10 µM, first compound 0.001 µM) was 94.9%, the viability, T/C (second compound 10 µM, first compound 0.00316 µM) was 52.4% and the viability, T/C (second compound 10 µM, first compound 0.01 µM) was 29.4%. It also gave a viability, T/C (second compound 10 µM, first compound 0.0316 µM) of 9.44% and a viability, T/C (second compound 10 µM, first compound 0.1 µM) of 3.98%.
